Like-named read-outs stand apart in the source and are kept apart here.
Tests used:
[1] = tested on: L. (L.) amazonensis axenic amastigotes; assay: Growth inhibition of axenic amastigotes, MTT assay, 72 h; type: cell-based, Leishmania (Leishmania) amazonensis; details: for EC50: read-out: Axenic Amastigotes EC50
Method: (§1) The species Leishmania (Leishmania) amazonensis (IFLA/BR/67/PH8) was maintained in promastigote form at a temperature of 26 °C in a biochemical oxygen demand incubator (BOD) (Eletrolab EL202, São Paulo, Brazil) and in complete Schneider medium (20% heat-inactivated fetal bovine serum (FBS), and 1% antibiotic solution). The L. (L.) amazonensis axenic amastigote forms were obtained through the differentiation of infective promastigote forms using Schneider medium supplemented with 5% FBS, pH 4.6, at a temperature of 32 °C. Parasite growth was observed daily and, if necessary, weekly repeats were performed.
(§2) Promastigote forms or axenic amastigotes in an exponential growth phase were cultured in 96-well plates with complete Schneider’s medium, at 1 × 10^6 parasites/mL. […] The plates were incubated for 72 h under a BOD at 26 °C to prepare promastigotes and 32 °C to prepare amastigotes. When ready, 10 μL of MTT (5 mg/mL) was added to all wells (with the exception of the blank) with an incubation for 4 h. Subsequently, 50 μL of SDS solution (dodecyl sodium sulfate) at 10% was added to dissolve the formazan crystals, and a spectrophotometric reading was then performed (Biotek model ELx800, Winooski, VT, USA) at 540 nm. Schneider medium with 0.5% DMSO was used, considering a 0% growth inhibition for the negative control.

[2] = tested on: L. (L.) amazonensis intracellular amastigotes; assay: Activity against intramacrophageal amastigotes in infected J774A.1 macrophages; type: cell-based, Leishmania (Leishmania) amazonensis; details: for EC50: read-out: Intracellular Amastigotes EC50; for reduction in macrophage infection rate / reduction in the number of internalized amastigotes per infected macrophage: compared to negative control
Method: Macrophages were added to 24-well culture plates containing complete RPMI medium and sterile 13 mm coverslips, 1 × 10^5 J774A.1, and for cell adhesion incubated at 37 °C and 5% CO2 for 3 h. The medium was then removed, and three washes with PBS at 37 °C to remove non-adherent cells were performed. New medium, together with metacyclic promastigote forms in a proportion of 10 promastigotes/macrophage, was then added to the wells for infection and then incubated for another 4 h at 37 °C and 5% of CO2. The medium was then removed again and the plate washed with PBS to remove non-internalized […]. […] Subsequently, the coverslips were removed, stained with a quick panoptic kit, and mounted with Entelan®. In each coverslip, 300 macrophages were counted, together with the number of internalized amastigotes through optical microscopy at 1000× magnification. For the negative control, complete RPMI medium with 0.5% DMSO was used. At the end of the macrophage infection assay, the supernatant was stored at −20 °C for the subsequent evaluation of NO production.

[3] = tested on: L. (L.) amazonensis promastigotes; assay: Growth inhibition of promastigotes, MTT assay, 72 h; type: cell-based; details: Leishmania amazonensis; for IC50: read-out: Promastigotes IC50
Method: as §1, §2

[4] = Cytotoxicity on macrophages, MTT assay, 72 h; details: mouse
Method: (§3) Murine J774A.1 lineage macrophages and VERO CCL 81 cells were grown in 750 cm^2 cell culture flasks (Corning Glass Workers, New York, NY, USA) containing complete RPMI medium (10% SFB and 1% stabilized anti-mycotic–antibiotic solution), incubated at 37 °C and 5% CO2. The cells were observed on all days and replicates were always conducted after the cells reached confluence, around 72 to 96 h [22].
(§4) The cytotoxicity assay was performed in 96-well plates using MTT for cell viability observation. Plates containing 100 μL of complete RPMI medium and approximately 5 × 10^5 J774A.1 macrophages or VERO CCL 81 cells were incubated for 4 h at 37 °C and 5% CO2 for cell adhesion to occur. […] As a positive control, the reference drugs meglumine antimoniate (200–40,000 µM) and amphotericin B (0.031–2 µM) were used, and as a negative control, complete RPMI 1640 medium at 0.5% DMSO was used (considering 100% cell viability). After 72 h of incubation at 37 °C and 5% CO2, 10 μL of MTT was added and incubated for another 4 h at room temperature. The medium was then removed, and 100 μL of DMSO was added to dilute the formazan crystals created by the MTT [23]. Finally, the plate was taken to be read at 540 nm in a (Biotek model Elx800) spectrophotometer.

[5] = Cytotoxicity on VERO cells, MTT assay, 72 h; details: African green monkey, VERO CCL 81 cells
Method: as §3, §4

[6] = tested on: L. (L.) amazonensis-infected J774A.1 macrophages; assay: Cytokine production in infected macrophages, ELISA; type: cell-based, murine; details: 72 h
Method: According to Rodrigues et al., 2021 [27], to carry out cytokine evaluation, the supernatant saved after the J774A.1 macrophage infection assay was used to evaluate cytokine production. Analysis kits (optEIATM ELISA, Pharmingen, San Diego, CA, USA) were used following the manufacturer’s protocol to examine the release of cytokines (TNF-α, IL-1α, IL-6, IL-10, and IL-12), and standard recombinant cytokines were used to produce a curve. The reading was performed in a spectrophotometer at 450 nm.

[7] = tested on: J774A.1 macrophages; assay: Phagocytic capacity, neutral-red-stained zymosan; type: cell-based, murine; details: 12.5 μM, 6.25 μM and 3.12 μM, 72 h, compared to negative control
Method: At 72 h, 10 μL of VN-stained zymosan was added and then incubated for 30 min. […] To remove what was not phagocytized by the macrophages, the plate was washed with PBS. The plate extraction solution was added, and then solubilization was performed in a Kline shaker. The board was taken for reading on a spectrophotometer at 540 nm.

[8] = tested on: J774A.1 macrophages infected with L. (L.) amazonensis; assay: Nitric oxide production by infected macrophages, Griess reagent; type: cell-based, murine; details: 3.12 μM, 6.25 μM and 12.5 μM, 72 h, compared to negative control
Method: The measurement of NO production (using macrophage infection supernatant) was performed by the production of nitrite with Griess reagent. About 100 µL of infection supernatant was added to a 96-well plate. In parallel, serial concentrations of NaNO2 in RPMI medium were also added to the plate for interpolation of the standard curve. Griess reagent (1% Sulfanilamide in 10% (v/v) H3PO4 in Milli-Q® water and in equal parts to 0.1% naphthylenediamine in Milli-Q® water Q®) was then added and incubated for 10 min at room temperature. At the end of the incubation, a reading was conducted on a plate reader at 540 nm. The positive control was performed with Escherichia coli lipopolysaccharide at 2 μg/mL.

[9] = tested on: J774A.1 macrophages; assay: Lysosomal activity, neutral red retention; type: cell-based, murine; details: 12.5 μM, 6.25 μM and 3.12 μM, 72 h, relative to negative control
Method: After this, 10 μL of PBS and 2% red neutral (VN) were added, with incubation in an incubator for another 30 min. Soon afterwards, the supernatant was aspirated and the plates washed 3× with PBS to remove excess VN. […] Finally, the plates were placed under agitation in a Kline apparatus for 30 min, and then read in a spectrophotometer at 540 nm.

[10] = tested on: J774A.1 macrophages infected with L. (L.) amazonensis; assay: ROS production in infected macrophages, H2DCFDA test; type: cell-based, murine; details: 3.12 μM, 6.25 μM and 12.5 μM, 72 h, compared to negative control
Method: Macrophages were incubated in 96-well plates with complete RPMI medium for 3 h at 37 °C, and 5% CO2 for adherence. These were then infected with L. […] Then 10 μL of H2DCFDA was added for a final concentration of 20 μM and incubated for 30 min in the dark at 37 °C. A spectrofluorometer (FLx800) was used to read the fluorescence intensity, using 485 nm of excitation and 528 nm of emission. Antimycin A (5 μM) was used as the positive control for ROS generation.

[11] = in vitro; details: African green monkey
Method: as §3, §4

[12] = in vitro; details: mouse
Method: as §3, §4

[13] = tested on: promastigotes of L. (L.) amazonensis; details: cited from earlier work
[14] = tested on: amastigotes of L. (L.) amazonensis; details: cited from earlier work
[15] = read-out: growth inhibition of promastigote forms
[16] = Leishmania amazonensis, read-out: growth inhibition of axenic amastigote forms

Meglumine antimoniate [reference compound]
EC50 ([1]; 32 °C, MTT): 1020 ± 25.7 µM
EC50 ([2]; infected J774A.1 macrophages, 72 h): 541 ± 13.5 µM

CC1(C)C=C2[C@H]3CC[C@@H]4[C@@]5(C)CC[C@H](O)C(C)(C)[C@@H]5CC[C@@]4(C)[C@]3(C)CC[C@@]2(C(=O)O)CC1 [Morolic acid, morolic acid]
IC50 [3]: 1.13 ± 0.04 µM
inhibition at 1.56 µM [3, 15]: 57.6%
inhibition at 3.12 µM [3, 15]: 57.9%
inhibition at 6.25 µM [3, 15]: 83.3%
inhibition at 12.5 µM [3, 15]: 100%
inhibition at 25 µM [3, 15]: 100%
inhibition at 50 µM [3, 15]: 100%
inhibition at 100 µM [3, 15]: 100%
CC50 at 72 h [4]: 68.6 ± 2.46 µM
viability at 72 h, 1.56 µM ([4]; J774A.1 macrophages): 100%
viability at 72 h, 3.12 µM ([4]; J774A.1 macrophages): 100%
viability at 72 h, 6.25 µM ([4]; J774A.1 macrophages): 100%
viability at 72 h, 12.5 µM ([4]; J774A.1 macrophages): 100%
viability at 72 h, 25 µM ([4]; J774A.1 macrophages): 100%
viability at 72 h, 50 µM ([4]; J774A.1 macrophages): 65%
viability at 72 h, 100 µM ([4]; J774A.1 macrophages): 15%
viability at 72 h, 200 µM ([4]; J774A.1 macrophages): 0%
EC50 ([1]; Leishmania amazonensis): 2.74 ± 0.03 µM
inhibition at 1.56 µM [1, 16]: 34.1%
inhibition at 3.12 µM [1, 16]: 68.6%
inhibition at 6.25 µM [1, 16]: 76.4%
inhibition at 12.5 µM [1, 16]: 100%
inhibition at 25 µM [1, 16]: 100%
inhibition at 50 µM [1, 16]: 100%
inhibition at 100 µM [1, 16]: 100%
CC50 at 72 h [5]: 82.9 ± 1.84 µM
viability at 72 h, 1.56 µM [5]: 100%
viability at 72 h, 3.12 µM [5]: 100%
viability at 72 h, 6.25 µM [5]: 93.2%
viability at 72 h, 12.5 µM [5]: 88.8%
viability at 72 h, 25 µM [5]: 79.4%
viability at 72 h, 50 µM [5]: 71.2%
viability at 72 h, 100 µM [5]: 38.8%
viability at 72 h, 200 µM [5]: 24.3%
IL-1α levels [6]: no effect
IL-12 levels [6]: no effect
production of TNF-α ([6]; at the higher concentration): significant increase
IL-6 levels ([6]; at the highest concentrations): significant reduction
IL-10 levels ([6]; at the highest concentrations): significant reduction
phagocytic capacity for zymosan [7]: significant increase
levels of NO produced in infected macrophages [8]: increase
lysosomal activity [9]: increased
reduction in macrophage infection rate ([2]; 1.56 μM, 72 h): 34%
reduction in the number of internalized amastigotes per infected macrophage ([2]; 1.56 μM, 72 h): 59.1%
reduction in macrophage infection rate ([2]; 3.12 μM, 72 h): 77.5%
reduction in the number of internalized amastigotes per infected macrophage ([2]; 3.12 μM, 72 h): 71.6%
reduction in macrophage infection rate ([2]; 6.25 μM, 72 h): 93%
reduction in the number of internalized amastigotes per infected macrophage ([2]; 6.25 μM, 72 h): 86.8%
reduction in macrophage infection rate ([2]; 12.5 μM, 72 h): 100%
reduction in the number of internalized amastigotes per infected macrophage ([2]; 12.5 μM, 72 h): 100%
EC50 ([2]; Leishmania amazonensis, J774.A1, 72 h): 2.56 ± 0.08 µM
levels of ROS produced in infected macrophages [10]: increase

C[C@@H]1[C@H](O)[C@@H](C)/C=C/C=C/C=C/C=C/C=C/C=C/C=C/[C@H](O[C@@H]2O[C@H](C)[C@@H](O)[C@H](N)[C@@H]2O)C[C@@H]2O[C@](O)(C[C@@H](O)C[C@@H](O)[C@H](O)CC[C@@H](O)C[C@@H](O)CC(=O)O[C@H]1C)C[C@H](O)[C@H]2C(=O)O [Amphotericin B, reference compound]
IC50 ([3]; 26 °C, MTT): 0.36 ± 0.03 µM
EC50 ([1]; Leishmania amazonensis, 32 °C, MTT): 0.23 ± 0.01 µM
CC50 at 72 h [11]: 0.32 ± 0.08 µM
CC50 at 72 h [12]: 0.38 ± 0.06 µM
EC50 ([2]; Leishmania amazonensis, J774.A1, infected J774A.1 macrophages, 72 h): 0.29 ± 0.04 µM

C[C@H]1[C@H](C)CC[C@]2(C(=O)O)CC[C@]3(C)C(=CC[C@@H]4[C@@]5(C)CC[C@H](O)C(C)(C)[C@@H]5CC[C@]43C)[C@H]12 [ursolic acid]
IC50 for promastigotes ([13]; L. (L.) amazonensis promastigotes ref 37): 14.1 µg/mL
IC50 for axenic amastigotes ([14]; L. (L.) amazonensis axenic amastigotes ref 37): 2.24 µg/mL

C=C(C)[C@@H]1CC[C@]2(C)CC[C@]3(C)[C@H](CC[C@@H]4[C@@]5(C)CC[C@H](O)C(C)(C)[C@@H]5CC[C@]43C)[C@@H]12 [Lupeol]
IC50 for promastigotes ([13]; L. (L.) amazonensis promastigotes ref 38): 39.06 µg/mL
IC50 for amastigote forms ([14]; L. (L.) amazonensis amastigote forms ref 38): 44.1 µg/mL
